The source of these data is article PMC4844572 (SpringerPlus, 2016).

The subject of this experiment is EstSTR1. Type of experiment: biochemical, uncultured bacterium. As to conditions: competitive against 100 μM cephalothin; 10 mM MES pH 6.8, bovine serum albumin 20 μg/ml, enzyme 396 μM as printed; stands in Km column, footnote gives Ki.

For `CO/N=C(\C(=O)N[C@@H]1C(=O)N2C(C(=O)O)=C(COC(C)=O)CS[C@H]12)c1csc(N)n1` [TAX, cefotaxime], the “Km (μM) / Wild” value turned out to be 0.90 ± 0.004 µM.
